Assay results from article PMC11007962, “First-in-human study of GFH018, a small molecule inhibitor of transforming growth factor-β receptor I inhibitor, in patients with advanced solid tumors” (BMC Cancer, 2024).
Entries after “also recorded” stand apart in the source; their conditions may differ. Read-outs that look alike come from different tables or passages of the source.

Tested on: patients with advanced solid tumors
[1] = 85 mg BID 14d-on/14d-off (N = 12)
[2] = all 50 patients, none related to GFH018

Experimental: The study consisted of a dose-escalation part followed by an expansion part. In the dose escalation part, a 3-day pharmacokinetic (PK) lead-in period was conducted for a single dose in the first treatment cycle. Patients received GFH018 once on cycle 1 day 1 (C1D1) and underwent serial PK testing over the first 3 days. On C1D4, patients were administered the corresponding dose of GFH018 BID 14 days on/14 days off. The first cycle was defined as 31 days, including 3-day PK leading-in period with GFH018 single dosing and then 14d-on/14d-off dosing schedule. The subsequent cycles were 28 days. The starting dose of GFH018 was 5 mg, with eight planned dose levels up to 85 mg (5, 10, 20, 30, 40, 50, 65, and 85 mg). A modified 3+3 design was used to determine the maximum tolerance dose (MTD) and RDE, guided by safety/tolerability and PK data. Dose-limiting toxicities (DLTs) were evaluated during the first cycle at each dose level. The safety of 85 mg BID, 7 d-on/7 d-off, was explored after confirming the safety of 14 d-on/14 d-off. The DLTs were defined as hematological toxicities, including G4 neutropenia lasting for more than 5 days, G3 febrile neutropenia, G4 anemia, G4 thrombocytopenia, or G3 thrombocytopenia accompanied by bleeding, and ≥ G3 nonhematological toxicity (except for diarrhea, nausea, vomiting, and rash recovering ≤ G2 after supportive treatment within 3 days). The DLTs for cardiac toxicities included ≥ G2 cardiac valve abnormalities, ≥ G2 left ventricular ejection fraction (LVEF) decrease, any cardiovascular impairment shown in imaging, and abnormal highly sensitive troponin (hs-Tn) increased to ≥ twice the baseline in two consecutive tests with an interval ≥ 3 days. In the expansion part, patients were orally administered GFH018 RDE twice daily to further evaluate the safety of RDE and other dose regimens. […] The treatment cycle lasted 28 days.
All enrolled patients were monitored regularly after GFH018 administration. Safety assessments included adverse events (AEs), serious AEs (SAEs), laboratory assessments, vital signs, physical examinations, electrocardiography and echocardiography. AEs were graded according to the NCI Common Terminology Criteria for Adverse Events (NCI-CTCAE) v5.0. All AEs were followed up until they were stable or had recovered to baseline. Adverse events of special interest (AESIs) were predefined as echocardiographic abnormalities such as aggravated stenosis or regurgitation of the heart valves, clinically significant decreases in LVEF, brain natriuretic peptide (BNP) or N-terminal pro-brain natriuretic peptide (NT-proBNP) increases, and hs-Tn increases judged by investigators.
For the safety and efficacy analyses, data from patients who received GFH018 at the same dose in the dose-escalation and expansion cohorts were pooled. The demographic and baseline characteristics were summarized using descriptive methods. Safety and efficacy data were summarized for all patients who received at least one dose of GFH018. The ORR and DCR were summarized by cohort and overall. When the sample size of the analyzed group was ten or more, the Kaplan–Meier method was used to estimate the median PFS and TTP. In this study, treatment-emergent AEs (TEAEs) were defined as AEs that occurred on or after the first dosing date of GFH018 and no later than 30 days after the last dose of GFH018. The incidence and severity of AEs were descriptively summarized according to dose level. The PK parameters of GFH018 were calculated using noncompartmental analysis methods. All plasma PK data were summarized by cohort and visit day or time using descriptive statistics.

SMILES: Cc1cccc(-c2nn3c(c2-c2ccc4ncnn4c2/C=C/C(N)=O)CCC3)n1 [GFH018]
- TEAE: White blood cell count decreased [1]: 2 (16.7%) n (%)
- TEAE: White blood cells urine positive [1]: 3 (25.0%) n (%)
- TEAE: White blood cells urine positive, any grade (Table S3) [1]: 3 (25.0%) n (%)
- TEAE: White blood cells urine positive, maximal CTCAE grade G1 [1]: 3 (25.0%) n (%)
- TEAE: White blood cells urine positive, maximal CTCAE grade G2 [1]: 0 n (%)
- TEAE: White blood cells urine positive, maximal CTCAE grade G3 [1]: 0 n (%)
- TEAE: White blood cells urine positive, maximal CTCAE grade G4 [1]: 0 n (%)
- TEAE: White blood cells urine positive, maximal CTCAE grade G5 [1]: 0 n (%)
- TRAE: ALP increased [1]: 1 (8.3%) n (%)
- TRAE: ALT increased [1]: 2 (16.7%) n (%)
- TRAE: AST increased [1]: 4 (33.3%) n (%)
- TRAE: Anemia [1]: 3 (25.0%) n (%)
- TRAE: GGT increased [1]: 2 (16.7%) n (%)
- TRAE: LDH increased [1]: 2 (16.7%) n (%)
- TRAE: Lymphocyte count decreased [1]: 2 (16.7%) n (%)
- TRAE: Protein urine present [1]: 1 (8.3%) n (%)
- TRAE: Proteinuria [1]: 1 (8.3%) n (%)
- Treatment-emergent Proteinuria (grouped PTs), G1 [1]: 1 (8.3) n (%)
- Treatment-emergent Proteinuria (grouped PTs), G2 [1]: 1 (8.3) n (%)
- Treatment-emergent Proteinuria (grouped PTs), G3 [1]: 1 (8.3) n (%)
- Treatment-emergent Proteinuria (grouped PTs: proteinuria and urine protein present), any grade [1]: 3 (25.0) n (%)
- correlation between incidences of TRAEs and dosages (5–85 mg BID): no obvious correlation
- dose-limiting toxicities (DLTs) (5–85 mg BID, evaluated during the first cycle): No dose-limiting toxicity occurred; also recorded: no DLTs were observed at any dose level; also recorded: without any DLTs
- skin toxicity (GFH018 as a single agent): No special concerns related to skin toxicity were raised
- At least one TEAE (Total (N = 50)): 48 (96.0%) n (%)
- At least one TEAE (Table S3) (Total (N = 50)): 48 (96.0%) n (%)
- At least one TRAE (Total (N = 50)): 43 (86.0%) n (%)
- TEAE: ALP increased (Total (N = 50)): 8 (16.0%) n (%)
- TEAE: ALT increased (Total (N = 50)): 8 (16.0%) n (%)
- TEAE: ALT increased, any grade (Table S3) (Total (N = 50)): 8 (16.0%) n (%)
- TEAE: ALT increased, maximal CTCAE grade G1 (Total (N = 50)): 8 (16.0%) n (%)
- TEAE: ALT increased, maximal CTCAE grade G2 (Total (N = 50)): 0 n (%)
- TEAE: ALT increased, maximal CTCAE grade G3 (Total (N = 50)): 0 n (%)
- TEAE: ALT increased, maximal CTCAE grade G4 (Total (N = 50)): 0 n (%)
- TEAE: ALT increased, maximal CTCAE grade G5 (Total (N = 50)): 0 n (%)
- TEAE: AST increased (Total (N = 50)): 11 (22.0%) n (%)
- TEAE: AST increased, any grade (Table S3) (Total (N = 50)): 11 (22.0%) n (%)
- TEAE: AST increased, maximal CTCAE grade G1 (Total (N = 50)): 10 (20.0%) n (%)
- TEAE: AST increased, maximal CTCAE grade G2 (Total (N = 50)): 1 (2.0%) n (%)
- TEAE: AST increased, maximal CTCAE grade G3 (Total (N = 50)): 0 n (%)
- TEAE: AST increased, maximal CTCAE grade G4 (Total (N = 50)): 0 n (%)
- TEAE: AST increased, maximal CTCAE grade G5 (Total (N = 50)): 0 n (%)
- TEAE: Abdominal distention (Total (N = 50)): 7 (14.0%) n (%)
- TEAE: Abdominal pain (Total (N = 50)): 9 (18.0%) n (%)
- TEAE: Anemia (Total (N = 50)): 17 (34.0%) n (%)
- TEAE: Asthenia (Total (N = 50)): 9 (18.0%) n (%)
- TEAE: Bilirubin conjugated increased (Total (N = 50)): 8 (16.0%) n (%)
- TEAE: Blood albumin decreased (Total (N = 50)): 6 (12.0%) n (%)
- TEAE: Blood bilirubin increased (Total (N = 50)): 5 (10.0%) n (%)
- TEAE: C-reactive protein increased (Total (N = 50)): 5 (10.0%) n (%)
- TEAE: C-reactive protein increased, any grade (Table S3) (Total (N = 50)): 5 (10.0%) n (%)
- TEAE: C-reactive protein increased, maximal CTCAE grade G1 (Total (N = 50)): 5 (10.0%) n (%)
- TEAE: C-reactive protein increased, maximal CTCAE grade G2 (Total (N = 50)): 0 n (%)
- TEAE: C-reactive protein increased, maximal CTCAE grade G3 (Total (N = 50)): 0 n (%)
- TEAE: C-reactive protein increased, maximal CTCAE grade G4 (Total (N = 50)): 0 n (%)
- TEAE: C-reactive protein increased, maximal CTCAE grade G5 (Total (N = 50)): 0 n (%)
- TEAE: Constipation (Total (N = 50)): 8 (16.0%) n (%)
- TEAE: Decreased appetite (Total (N = 50)): 6 (12.0%) n (%)
- TEAE: Decreased appetite, any grade (Table S3) (Total (N = 50)): 6 (12.0%) n (%)
- TEAE: Decreased appetite, maximal CTCAE grade G1 (Total (N = 50)): 4 (8.0%) n (%)
- TEAE: Decreased appetite, maximal CTCAE grade G2 (Total (N = 50)): 2 (4.0%) n (%)
- TEAE: Decreased appetite, maximal CTCAE grade G3 (Total (N = 50)): 0 n (%)
- TEAE: Decreased appetite, maximal CTCAE grade G4 (Total (N = 50)): 0 n (%)
- TEAE: Decreased appetite, maximal CTCAE grade G5 (Total (N = 50)): 0 n (%)
- TEAE: GGT increased (Total (N = 50)): 10 (20.0%) n (%)
- TEAE: GGT increased, any grade (Table S3) (Total (N = 50)): 10 (20.0%) n (%)
- TEAE: GGT increased, maximal CTCAE grade G1 (Total (N = 50)): 8 (16.0%) n (%)
- TEAE: GGT increased, maximal CTCAE grade G2 (Total (N = 50)): 2 (4.0%) n (%)
- TEAE: GGT increased, maximal CTCAE grade G3 (Total (N = 50)): 0 n (%)
- TEAE: GGT increased, maximal CTCAE grade G4 (Total (N = 50)): 0 n (%)
- TEAE: GGT increased, maximal CTCAE grade G5 (Total (N = 50)): 0 n (%)
- TEAE: Hypoalbuminemia (Total (N = 50)): 7 (14.0%) n (%)
- TEAE: LDH increased (Total (N = 50)): 8 (16.0%) n (%)
- TEAE: LDH increased, any grade (Table S3) (Total (N = 50)): 8 (16.0%) n (%)
- TEAE: LDH increased, maximal CTCAE grade G1 (Total (N = 50)): 8 (16.0%) n (%)
- TEAE: LDH increased, maximal CTCAE grade G2 (Total (N = 50)): 0 n (%)
- TEAE: LDH increased, maximal CTCAE grade G3 (Total (N = 50)): 0 n (%)
- TEAE: LDH increased, maximal CTCAE grade G4 (Total (N = 50)): 0 n (%)
- TEAE: LDH increased, maximal CTCAE grade G5 (Total (N = 50)): 0 n (%)
- TEAE: Lymphocyte count decreased (Total (N = 50)): 12 (24.0%) n (%)
- TEAE: Platelet count decreased (Total (N = 50)): 6 (12.0%) n (%)
- TEAE: Proteinuria (Total (N = 50)): 11 (22.0%) n (%)
- TEAE: Sinus tachycardia (Total (N = 50)): 10 (20.0%) n (%)
- TEAE: Urine protein present (Total (N = 50)): 10 (20.0%) n (%)
- TEAE: White blood cell count decreased (Total (N = 50)): 7 (14.0%) n (%)
- TEAE: White blood cells urine positive (Total (N = 50)): 5 (10.0%) n (%)
- TEAE: White blood cells urine positive, any grade (Table S3) (Total (N = 50)): 5 (10.0%) n (%)
- TEAE: White blood cells urine positive, maximal CTCAE grade G1 (Total (N = 50)): 5 (10.0%) n (%)
- TEAE: White blood cells urine positive, maximal CTCAE grade G2 (Total (N = 50)): 0 n (%)
- TEAE: White blood cells urine positive, maximal CTCAE grade G3 (Total (N = 50)): 0 n (%)
- TEAE: White blood cells urine positive, maximal CTCAE grade G4 (Total (N = 50)): 0 n (%)
- TEAE: White blood cells urine positive, maximal CTCAE grade G5 (Total (N = 50)): 0 n (%)
- TRAE: ALP increased (Total (N = 50)): 5 (10.0%) n (%)
- TRAE: ALT increased (Total (N = 50)): 6 (12.0%) n (%)
- TRAE: AST increased (Total (N = 50)): 9 (18.0%) n (%)
- TRAE: Anemia (Total (N = 50)): 7 (14.0%) n (%)
- TRAE: GGT increased (Total (N = 50)): 5 (10.0%) n (%)
- TRAE: LDH increased (Total (N = 50)): 5 (10.0%) n (%)
- TRAE: Lymphocyte count decreased (Total (N = 50)): 6 (12.0%) n (%)
- TRAE: Protein urine present (Total (N = 50)): 6 (12.0%) n (%)
- TRAE: Proteinuria (Total (N = 50)): 7 (14.0%) n (%)
- Treatment-emergent Proteinuria (grouped PTs), G1 (Total (N = 50)): 12 (24.0) n (%)
- Treatment-emergent Proteinuria (grouped PTs), G2 (Total (N = 50)): 8 (16.0) n (%)
- Treatment-emergent Proteinuria (grouped PTs), G3 (Total (N = 50)): 1 (2.0) n (%)
- Treatment-emergent Proteinuria (grouped PTs: proteinuria and urine protein present), any grade (Total (N = 50)): 21 (42.0) n (%)
- TRAE ALP increased, all G (all 50 patients): 10.0%
- TRAE ALP increased, ≥G3 (all 50 patients): 0%
- TRAE ALT increased, all G (all 50 patients): 12%
- TRAE ALT increased, ≥G3 (all 50 patients): 0%
- TRAE AST increased, all G (all 50 patients): 18%
- TRAE AST increased, ≥G3 (all 50 patients): 0%
- TRAE GGT increased, all G (all 50 patients): 10.0%
- TRAE GGT increased, ≥G3 (all 50 patients): 0%
- TRAE LDH increased, all G (all 50 patients): 10.0%
- TRAE LDH increased, ≥G3 (all 50 patients): 0%
- TRAE anemia, all G (all 50 patients): 14%
- TRAE anemia, ≥G3 (all 50 patients): 2%
- TRAE lymphocyte count decreased, all G (all 50 patients): 12.0%
- TRAE lymphocyte count decreased, ≥G3 (all 50 patients): 2.0%
- TRAE proteinuria, all G (all 50 patients): 14%
- TRAE proteinuria, ≥G3 (all 50 patients): 2%
- TRAE urine protein present, all G (all 50 patients): 12.0%
- TRAE urine protein present, ≥G3 (all 50 patients): 0%
- bleeding events (all 50 patients): No significant cardiotoxicity or bleeding was observed; also recorded: No bleeding events occurred
- cardiotoxicity (all 50 patients): No significant cardiotoxicity or bleeding was observed; also recorded: No significant cardiotoxicity was observed; also recorded: No significant cardiovascular toxicities were observed
- changes in serum creatinine levels or estimated glomerular filtration rate (all 50 patients): no clinically significant changes
- grade 4 or 5 TRAEs (all 50 patients): No grade 4 or 5 TRAEs were observed
- patients with grade 3 proteinuria (all 50 patients): one
- patients with at least one TEAE (all 50 patients, 5-85 mg): ~96.0%
- patients with at least one TRAE (all 50 patients, 5-85 mg): 86.0%
- patients with at least one ≥ G3 TEAE (all 50 patients, 5-85 mg): 26.0%
- patients with ≥ G3 TRAEs (all 50 patients, 5-85 mg): 6%
- deaths (all 50 patients, all judged unrelated to GFH018): Six
- patients with at least one serious AE (SAE) [2]: nine
- treatment discontinuation due to AEs (bilirubin increased, peripheral edema) [2]: two
- severity of AESIs (all 50 patients, without clinical symptoms or signs): mild (Grade 1)
- maximum tolerated dose (MTD) (eight dose levels up to 85 mg): not reached
